Test results reported in patent publication US9376418B2, “Substituted pyridine spleen tyrosine kinase (SYK) inhibitors” (Merck Sharp & Dohme Corp., priority 2012, dated 2016).

The compounds below were run against T1, recombinant human GST-SYK (Homo sapiens, UniProt P43405) (assay: Homogeneous Time-Resolved Fluorescence (HTRF) assay for the recombinant human Syk enzyme). Details: HTRF assay, recombinant human GST-SYK; IC50 given as class symbols; read-out: rhSYK Activity.
T1 construct: purchased Carna Biosciences 08-176
Type: biochemical
How it was run: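 Phosphorylation of a biotinylated Syk substrate peptide (250 nM) was run for 45 min at room temperature with 25 μM ATP and 5 mM Mg. It followed a 10-min preincubation of GST-hSYK ([…]) with compound in 15 mM Tris-HCl pH 7.5, 2 mM DTT. Product was detected by time-resolved fluorescence using a europium anti-phosphotyrosine antibody plus SA-APC in EDTA-containing quench buffer.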

Row | IC50 | SMILES
1 | 100 to 1000 nM | Cc1cc(Nc2nccc(C(F)(F)F)n2)cc(-c2ccc(NC(C)(C#N)CC(F)(F)F)nc2)c1 (stereo not shown) [Example 7.117, 4,4,4-trifluoro-2-methyl-2-{[5-(3-methyl-5-{[4-(trifluoromethyl)pyrimidin-2-yl]amino}phenyl)pyridin-2-yl]amino}butanenitrile]
2 | < 100 nM | CCC(C)(C#N)Nc1ccc(-c2cc(C)cc(Nc3nccc(C(F)(F)F)n3)c2)cn1 (stereo not shown) [Example 7.118, 2-methyl-2-{[5-(3-methyl-5-{[4-(trifluoromethyl)pyrimidin-2-yl]amino}phenyl)pyridin-2-yl]amino}butanenitrile]
3 | < 100 nM | Cc1cc(Nc2nccc(C(F)(F)F)n2)cc(-c2ccc(N3CCCC[C@H]3C(=O)O)nc2)c1 [Example 7.120, (2S)-1-[5-(3-methyl-5-{[4-(trifluoromethyl)pyrimidin-2-yl]amino}phenyl)pyridin-2-yl]piperidine-2-carboxylic acid]
4 | < 100 nM | Cc1cc(Nc2nccc(C(F)(F)F)n2)cc(-c2ccc(N3CCC[C@@]3(C)C(=O)O)nc2)c1 [Example 7.121, 2-methyl-1-[5-(3-methyl-5-{[4-(trifluoromethyl)pyrimidin-2-yl]amino}phenyl)pyridin-2-yl]-L-proline]
5 | < 100 nM | Cc1cc(Nc2nccc(C(F)(F)F)n2)cc(-c2cnc(NC(C)(C)C(=O)O)c(C(F)(F)F)c2)c1 [Example 7.123, 2-methyl-N-[5-(3-methyl-5-{[4-(trifluoromethyl)pyrimidin-2-yl]amino}phenyl)-3-(trifluoromethyl)pyridin-2-yl]alanine]
6 | < 100 nM | O=C1NCCC1Nc1ccc(-c2cccc(Nc3nccc(C(F)(F)F)n3)c2)cn1 (stereo not shown) [Example 7.124, 3-{[5-(3-{[4-(trifluoromethyl)pyrimidin-2-yl]amino}phenyl)pyridin-2-yl]amino}pyrrolidin-2-one]
7 | < 100 nM | CC(C)(Nc1ccc(-c2cccc(Nc3nccc(C(F)(F)F)n3)c2)cn1)C(=O)O [Example 7.125, 2-methyl-N-[5-(3-{[4-(trifluoromethyl)pyrimidin-2-yl]amino}phenyl)pyridin-2-yl]alanine]
8 | < 100 nM | O=C(O)[C@@H]1CCN1c1ccc(-c2cccc(Nc3nccc(C(F)(F)F)n3)c2)cn1 [Example 7.126, (2S)-1-[5-(3-{[4-(trifluoromethyl)pyrimidin-2-yl]amino}phenyl)pyridin-2-yl]azetidine-2-carboxylic acid]
9 | < 100 nM | O=C(O)[C@@H]1CCN1c1ccc(-c2cc(F)cc(Nc3nccc(C(F)(F)F)n3)c2)cn1 [Example 7.127, (2S)-1-[5-(3-fluoro-5-{[4-(trifluoromethyl)pyrimidin-2-yl]amino}phenyl)pyridin-2-yl]azetidine-2-carboxylic acid]
10 | < 100 nM | Cc1cc(Nc2nccc(C(F)(F)F)n2)cc(-c2ccc(NC3CNC(=O)C3)nc2)c1 (stereo not shown) [Example 7.128, 4-{[5-(3-methyl-5-{[4-(trifluoromethyl)pyrimidin-2-yl]amino}phenyl)pyridin-2-yl]amino}pyrrolidin-2-one]
11 | < 100 nM | Cc1cc(Nc2nccc(C(F)(F)F)n2)cc(-c2ccc(NC3(C(=O)O)CC3)nc2)c1 [Example 7.129, 1-{[5-(3-methyl-5-{[4-(trifluoromethyl)pyrimidin-2-yl]amino}phenyl)pyridin-2-yl]amino}cyclopropanecarboxylic acid]
12 | < 100 nM | Cc1cc(Nc2nccc(C(F)(F)F)n2)cc(-c2ccc(N3CCCCC3CC(=O)O)nc2)c1 (stereo not shown) [Example 7.132, {1-[5-(3-methyl-5-{[4-(trifluoromethyl)pyrimidin-2-yl]amino}phenyl)pyridin-2-yl]piperidin-2-yl}acetic acid]
13 | < 100 nM | Cc1cc(Nc2nccc(C(F)(F)F)n2)cc(-c2ccc(N3CC(C(=O)O)C3)nc2)c1 [Example 7.133, 1-[5-(3-methyl-5-{[4-(trifluoromethyl)pyrimidin-2-yl]amino}phenyl)pyridin-2-yl]azetidine-3-carboxylic acid]
14 | < 100 nM | Cc1cc(Nc2nccc(C(F)(F)F)n2)cc(-c2ccc(N3CC[C@H](O)[C@H]3C(=O)O)nc2)c1 [Example 7.134, (3S)-3-hydroxy-1-[5-(3-methyl-5-{[4-(trifluoromethyl)pyrimidin-2-yl]amino}phenyl)pyridin-2-yl]-L-proline]
15 | < 100 nM | Cc1cc(Nc2nccc(C(F)(F)F)n2)cc(-c2ccc(N3CCCC(C(=O)O)C3)nc2)c1 (stereo not shown) [Example 7.135, 1-[5-(3-methyl-5-{[4-(trifluoromethyl)pyrimidin-2-yl]amino}phenyl)pyridin-2-yl]piperidine-3-carboxylic acid]
16 | < 100 nM | Cc1cc(Nc2nccc(C(F)(F)F)n2)cc(-c2ccc(N3CCC(C(=O)O)CC3)nc2)c1 [Example 7.136, 1-[5-(3-methyl-5-{[4-(trifluoromethyl)pyrimidin-2-yl]amino}phenyl)pyridin-2-yl]piperidine-4-carboxylic acid]

Row | IC50 | SMILES
17 | < 100 nM | Cc1cc(Nc2nccc(C(F)(F)F)n2)cc(-c2ccc(N3CSCC3C(=O)O)nc2)c1 (stereo not shown) [Example 7.137, 3-[5-(3-methyl-5-{[4-(trifluoromethyl)pyrimidin-2-yl]amino}phenyl)pyridin-2-yl]-1,3-thiazolidine-4-carboxylic acid]
18 | < 100 nM | Cc1cc(Nc2nccc(C(F)(F)F)n2)cc(-c2ccc(NCC(=O)NCC(=O)O)nc2)c1 [Example 7.138, N-[5-(3-methyl-5-{[4-(trifluoromethyl)pyrimidin-2-yl]amino}phenyl)pyridin-2-yl]glycylglycine]
19 | < 100 nM | Cc1cc(Nc2nccc(C(F)(F)F)n2)cc(-c2ccc(N3CCN(CCCC(=O)O)CC3)nc2)c1 [Example 7.139, 4-{4-[5-(3-methyl-5-{[4-(trifluoromethyl)pyrimidin-2-yl]amino}phenyl)pyridin-2-yl]piperazin-1-yl}butanoic acid]
20 | < 100 nM | Cc1cc(Nc2nccc(C(F)(F)F)n2)cc(-c2ccc(N3CCN(CC(=O)O)CC3)nc2)c1 [Example 7.140, {4-[5-(3-methyl-5-{[4-(trifluoromethyl)pyrimidin-2-yl]amino}phenyl)pyridin-2-yl]piperazin-1-yl}acetic acid]
21 | < 100 nM | Cc1cc(Nc2nccc(C(F)(F)F)n2)cc(-c2ccc(N3CCC(C(=O)N4CCC(C(=O)O)CC4)CC3)nc2)c1 [Example 7.141, 1-({1-[5-(3-methyl-5-{[4-(trifluoromethyl)pyrimidin-2-yl]amino}phenyl)pyridin-2-yl]piperidin-4-yl}carbonyl)piperidine-4-carboxylic acid]
22 | < 100 nM | Cc1cc(Nc2nccc(C(F)(F)F)n2)cc(-c2ccc(N[C@H]3CC[C@@H](C(=O)O)CC3)nc2)c1 [Example 7.142, cis-4-{[5-(3-methyl-5-{[4-(trifluoromethyl)pyrimidin-2-yl]amino}phenyl)pyridin-2-yl]amino}cyclohexanecarboxylic acid]
23 | < 100 nM | Cc1cc(Nc2nccc(C(F)(F)F)n2)cc(-c2ccc(N[C@H]3CC[C@H](C(=O)O)CC3)nc2)c1 [Example 7.143, trans-4-{[5-(3-methyl-5-{[4-(trifluoromethyl)pyrimidin-2-yl]amino}phenyl)pyridin-2-yl]amino}cyclohexanecarboxylic acid]
24 | < 100 nM | Cc1cc(Nc2nccc(C(F)(F)F)n2)cc(-c2ccc(NC[C@H]3CC[C@H](C(=O)O)CC3)nc2)c1 [Example 7.144, trans-4-({[5-(3-methyl-5-{[4-(trifluoromethyl)pyrimidin-2-yl]amino}phenyl)pyridin-2-yl]amino}methyl)cyclohexanecarboxylic acid]
25 | < 100 nM | Cc1cc(Nc2nccc(C(F)(F)F)n2)cc(-c2ccc(N3CC(C4CCC(C(=O)O)CC4)C3)nc2)c1 (stereo not shown) [Example 7.145, 4-{1-[5-(3-methyl-5-{[4-(trifluoromethyl)pyrimidin-2-yl]amino}phenyl)pyridin-2-yl]azetidin-3-yl}cyclohexanecarboxylic acid]
26 | < 100 nM | Cc1cc(Nc2nccc(C(F)(F)F)n2)cc(-c2ccc(N3CC(C4CCCC(C(=O)O)C4)C3)nc2)c1 (stereo not shown) [Example 7.146, 3-{1-[5-(3-methyl-5-{[4-(trifluoromethyl)pyrimidin-2-yl]amino}phenyl)pyridin-2-yl]azetidin-3-yl}cyclohexanecarboxylic acid]
27 | < 100 nM | Cc1cc(Nc2nccc(C(F)(F)F)n2)cc(-c2ccc(N3CCC([C@@H]4CCCC[C@H]4C(=O)O)CC3)nc2)c1 [Example 7.147, (1R,2S)-2-{1-[5-(3-methyl-5-{[4-(trifluoromethyl)pyrimidin-2-yl]amino}phenyl)pyridin-2-yl]piperidin-4-yl}cyclohexanecarboxylic acid]
28 | < 100 nM | Cc1cc(Nc2nccc(C(F)(F)F)n2)cc(-c2ccc(NCC3CCC(C(=O)O)CC3)nc2)c1 (stereo not shown) [Example 7.148, 4-({[5-(3-methyl-5-{[4-(trifluoromethyl)pyrimidin-2-yl]amino}phenyl)pyridin-2-yl]amino}methyl)cyclohexanecarboxylic acid]
29 | < 100 nM | Cc1cc(Nc2nccc(C(F)(F)F)n2)cc(-c2ccc(N3CCC[C@@H](C(=O)N4CCC[C@@H](C(=O)O)C4)C3)nc2)c1 [Example 7.149, (3R)-1-({(3R)-1-[5-(3-methyl-5-{[4-(trifluoromethyl)pyrimidin-2-yl]amino}phenyl)pyridin-2-yl]piperidin-3-yl}carbonyl)piperidine-3-carboxylic acid]
30 | < 100 nM | Cc1cc(Nc2nccc(C(F)(F)F)n2)cc(-c2ccc(N3CCC[C@@H](C(=O)N4CCC[C@H](C(=O)O)C4)C3)nc2)c1 [Example 7.150, (3S)-1-({(3R)-1-[5-(3-methyl-5-{[4-(trifluoromethyl)pyrimidin-2-yl]amino}phenyl)pyridin-2-yl]piperidin-3-yl}carbonyl)piperidine-3-carboxylic acid]
31 | < 100 nM | Cc1cc(Nc2nccc(C(F)(F)F)n2)cc(-c2ccc(N3CCC(N4CC(C(=O)O)CC4=O)CC3)nc2)c1 (stereo not shown) [Example 7.151, 1-{1-[5-(3-methyl-5-{[4-(trifluoromethyl)pyrimidin-2-yl]amino}phenyl)pyridin-2-yl]piperidin-4-yl}-5-oxopyrrolidine-3-carboxylic acid]
